# Key:
# [1] = biological target: T1, Amine oxidase [flavin-containing] B (Homo sapiens, UniProt P27338); assay: Inhibition of human MAO-B using tyramine as substrate by amplex red assay
# T1 sequence (P27338 whole entry): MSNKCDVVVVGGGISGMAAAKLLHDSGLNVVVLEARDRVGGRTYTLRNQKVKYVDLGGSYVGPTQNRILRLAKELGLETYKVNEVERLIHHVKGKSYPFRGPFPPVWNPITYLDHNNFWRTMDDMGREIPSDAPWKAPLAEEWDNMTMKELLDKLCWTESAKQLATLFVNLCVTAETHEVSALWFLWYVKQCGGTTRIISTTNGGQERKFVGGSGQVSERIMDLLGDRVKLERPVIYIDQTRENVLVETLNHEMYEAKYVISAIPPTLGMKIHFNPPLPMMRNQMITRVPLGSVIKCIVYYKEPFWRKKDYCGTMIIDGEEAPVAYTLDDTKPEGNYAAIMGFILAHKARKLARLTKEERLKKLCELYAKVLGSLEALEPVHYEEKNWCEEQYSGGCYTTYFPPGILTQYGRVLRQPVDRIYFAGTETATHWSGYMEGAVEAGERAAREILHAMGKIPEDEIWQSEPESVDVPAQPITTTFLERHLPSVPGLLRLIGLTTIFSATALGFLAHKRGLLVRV
# [2] = biological target: Cholinesterase (Equus caballus) (UniProt P81908); assay: Inhibition of horse serum BuChE using butyrylthiocholine iodide as substrate at 10 uM incubated for 6 mins followed by substrate addition by DTNB reagent based Ellman's method
# [3] = biological target: T2, Amine oxidase [flavin-containing] A (Homo sapiens, UniProt P21397); assay: Inhibition of recombinant human MAO-A using p-tyramine as substrate incubated for 15 mins followed by substrate addition and measured for 15 to 20 mins by Amplex Red assay
# T2 sequence (P21397 whole entry): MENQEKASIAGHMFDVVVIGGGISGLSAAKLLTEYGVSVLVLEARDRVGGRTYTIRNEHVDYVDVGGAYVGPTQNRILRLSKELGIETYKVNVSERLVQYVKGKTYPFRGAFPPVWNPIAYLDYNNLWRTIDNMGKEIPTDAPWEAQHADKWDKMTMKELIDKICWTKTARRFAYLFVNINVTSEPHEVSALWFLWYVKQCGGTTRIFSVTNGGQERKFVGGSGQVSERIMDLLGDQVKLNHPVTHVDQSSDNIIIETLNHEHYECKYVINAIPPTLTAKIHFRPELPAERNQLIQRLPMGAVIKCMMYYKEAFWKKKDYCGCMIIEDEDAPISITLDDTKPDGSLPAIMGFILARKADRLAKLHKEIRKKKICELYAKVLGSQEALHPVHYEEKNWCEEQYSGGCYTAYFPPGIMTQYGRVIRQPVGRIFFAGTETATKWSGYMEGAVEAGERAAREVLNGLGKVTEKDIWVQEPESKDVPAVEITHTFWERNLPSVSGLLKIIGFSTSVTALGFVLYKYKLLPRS
# [4] = biological target: T1, Amine oxidase [flavin-containing] B; assay: Inhibition of recombinant human MAO-B using p-tyramine as substrate incubated for 15 mins followed by substrate addition and measured upto 20 mins by Amplex Red assay
# Acetylcholinesterase [5] = biological target: Acetylcholinesterase (Electrophorus electricus, UniProt O42275); assay: Inhibition of electric eel AChE using acetylthiocholine iodide as substrate incubated for 6 mins followed by substrate addition by DTNB reagent based Ellman's method
# [6] = biological target: T2, Amine oxidase [flavin-containing] A; assay: Inhibition of recombinant human MAO-A using kynuramine as substrate incubated for 10 mins followed by substrate addition and measured for 20 mins by Fluorescence microplate reader assay
# [7] = biological target: T1, Amine oxidase [flavin-containing] B; assay: Inhibition of MAO-B (unknown origin) using as tyramine as substrate by Ampliflu red reagent based fluorometric method
# [8] = biological target: T1, Amine oxidase [flavin-containing] B; assay: Inhibition of recombinant human MAO-B using kynuramine as substrate incubated for 20 min by fluorescent spectrophotometric assay
# [9] = biological target: T1, Amine oxidase [flavin-containing] B; assay: Inhibition of recombinant human MAO-B using tyramine hydrochloride as substrate preincubated for 30 mins followed by substrate addition and measured after 30 mins by fluorescence assay
# [10] = biological target: T2, Amine oxidase [flavin-containing] A; assay: Inhibition of recombinant human MAO-A expressed in insect cells using kynuramine as substrate incubated for 20 mins by Amplex Red reagent based fluorometric method
# Homo sapiens = organism: Homo sapiens; assay: Selectivity index, ratio of IC50 for inhibition of recombinant human MAO-B to IC50 for inhibition of recombinant human MAO-A
# [11] = biological target: T1, Amine oxidase [flavin-containing] B; assay: Inhibition of recombinant human MAO-B expressed in insect cells using kynuramine as substrate incubated for 20 mins by Amplex Red reagent based fluorometric method
# [12] = biological target: T3, Amine oxidase [flavin-containing] B (Rattus norvegicus, UniProt P19643); assay: Inhibition of rat brain mitochondria MAO-B using p-tyramine as substrate incubated for 15 mins followed by substrate addition and measured for 15 by microplate fluorescence reader analysis
# T3 sequence (P19643 whole entry): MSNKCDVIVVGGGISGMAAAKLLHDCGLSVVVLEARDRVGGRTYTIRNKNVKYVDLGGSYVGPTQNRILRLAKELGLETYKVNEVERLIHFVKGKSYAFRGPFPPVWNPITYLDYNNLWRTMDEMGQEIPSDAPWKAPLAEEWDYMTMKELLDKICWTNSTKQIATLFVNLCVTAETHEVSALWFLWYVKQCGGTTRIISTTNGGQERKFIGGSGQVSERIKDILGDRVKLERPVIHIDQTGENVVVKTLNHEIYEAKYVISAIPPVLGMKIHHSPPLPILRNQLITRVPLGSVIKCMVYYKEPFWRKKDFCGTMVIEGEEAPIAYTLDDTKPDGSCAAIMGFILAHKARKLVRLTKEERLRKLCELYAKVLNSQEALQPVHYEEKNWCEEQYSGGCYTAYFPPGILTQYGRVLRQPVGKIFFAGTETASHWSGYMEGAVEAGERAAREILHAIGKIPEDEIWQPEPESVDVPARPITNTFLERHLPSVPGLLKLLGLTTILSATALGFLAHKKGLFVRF
# [13] = biological target: T2, Amine oxidase [flavin-containing] A; assay: Inhibition of human MAO-A using p-tyramine as substrate preincubated for 15 mins followed by substrate addition and measured after 30 mins by Ample red assay
# Cholinesterase = Cholinesterase (Homo sapiens, UniProt P06276); assay: Inhibition of human BuChE using butyrylthiocholine iodide as substrate preincubated for 30 mins followed by substrate addition and measured after 15 mins by Ellman's method
# Acetylcholinesterase [14] = biological target: T4, Acetylcholinesterase (Homo sapiens, UniProt P22303); assay: Inhibition of recombinant human AChE using acetylcholine as substrate preincubated for 15 mins followed by substrate addition and measured after 30 mins by Amplex Red reagent based fluorescence assay
# [15] = biological target: T2, Amine oxidase [flavin-containing] A; assay: Inhibition of recombinant human MAO-A using kynuramine as substrate incubated for 20 mins by fluorescence spectrophotometric assay
# [16] = biological target: T1, Amine oxidase [flavin-containing] B; assay: Inhibition of recombinant human MAO-B using kynuramine as substrate incubated for 20 mins by fluorescence spectrophotometric assay
# [17] = biological target: T1, Amine oxidase [flavin-containing] B; assay: Competitive inhibition of recombinant human MAO-B using kynuramine as substrate incubated for 20 mins by Lineweaver-Burk plot analysis
# [18] = biological target: T1, Amine oxidase [flavin-containing] B; assay: Inhibition of MAO-B (unknown origin) using benzylamine as substrate by spectrophotometric assay
# [19] = biological target: T2, Amine oxidase [flavin-containing] A; assay: Inhibition of MAO-A (unknown origin) using kynuramine as substrate by spectrophotometric assay
# [20] = biological target: Acetylcholinesterase (Electrophorus electricus) (UniProt O42275); assay: Inhibition of electric eel AChE using acetylthiocholine iodide as substrate at 1 uM preincubated for 5 mins followed by substrate addition and measured for 20 mins by DTNB reagent based Ellman's method
# Acetylcholinesterase [21] = biological target: T4, Acetylcholinesterase; assay: Inhibition of human AChE using acetylcholine as substrate incubated for 5 mins followed by substrate addition by Ellman's method
# [22] = biological target: T1, Amine oxidase [flavin-containing] B; assay: Inhibition of recombinant human MAO-B using p-tyramine as substrate preincubated for 15 mins followed by substrate addition and measured after 20 mins by fluorescence assay
# T4 sequence (P22303 whole entry): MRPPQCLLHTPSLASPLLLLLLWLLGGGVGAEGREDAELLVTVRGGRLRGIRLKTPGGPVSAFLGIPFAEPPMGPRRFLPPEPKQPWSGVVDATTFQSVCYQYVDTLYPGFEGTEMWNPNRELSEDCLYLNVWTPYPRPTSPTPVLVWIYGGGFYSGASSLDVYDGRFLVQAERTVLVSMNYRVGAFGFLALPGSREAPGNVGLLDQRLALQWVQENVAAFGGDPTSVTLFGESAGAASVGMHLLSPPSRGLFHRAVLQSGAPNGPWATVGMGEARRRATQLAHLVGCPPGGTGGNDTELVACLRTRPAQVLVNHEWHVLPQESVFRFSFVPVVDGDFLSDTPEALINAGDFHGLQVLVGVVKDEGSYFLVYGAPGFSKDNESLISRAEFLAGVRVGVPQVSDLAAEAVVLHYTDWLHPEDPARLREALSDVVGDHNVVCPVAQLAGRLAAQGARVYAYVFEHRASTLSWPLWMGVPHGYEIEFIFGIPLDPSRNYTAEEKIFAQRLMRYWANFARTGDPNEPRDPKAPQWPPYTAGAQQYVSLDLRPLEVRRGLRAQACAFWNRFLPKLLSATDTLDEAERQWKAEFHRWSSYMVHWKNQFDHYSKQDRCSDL
# Sequence of Acetylcholinesterase (Electrophorus electricus) (O42275 24-633 limits assumed): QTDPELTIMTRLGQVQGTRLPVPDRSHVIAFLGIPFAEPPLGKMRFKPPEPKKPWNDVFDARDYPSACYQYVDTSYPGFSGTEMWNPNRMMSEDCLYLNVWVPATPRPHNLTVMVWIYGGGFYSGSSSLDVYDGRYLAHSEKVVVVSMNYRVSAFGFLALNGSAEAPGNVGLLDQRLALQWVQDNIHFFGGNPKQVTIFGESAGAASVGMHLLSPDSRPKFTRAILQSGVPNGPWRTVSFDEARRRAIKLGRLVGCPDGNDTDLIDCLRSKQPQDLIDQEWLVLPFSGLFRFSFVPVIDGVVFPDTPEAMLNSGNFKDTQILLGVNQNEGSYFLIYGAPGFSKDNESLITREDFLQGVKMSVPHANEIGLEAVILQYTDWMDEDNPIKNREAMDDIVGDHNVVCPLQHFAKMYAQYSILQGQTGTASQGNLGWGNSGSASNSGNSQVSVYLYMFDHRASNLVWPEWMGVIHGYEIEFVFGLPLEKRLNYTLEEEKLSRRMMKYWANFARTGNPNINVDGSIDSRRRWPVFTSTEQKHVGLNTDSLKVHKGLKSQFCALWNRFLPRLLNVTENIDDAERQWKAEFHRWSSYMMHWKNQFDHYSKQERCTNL
# Sequence of Cholinesterase (P06276 whole entry): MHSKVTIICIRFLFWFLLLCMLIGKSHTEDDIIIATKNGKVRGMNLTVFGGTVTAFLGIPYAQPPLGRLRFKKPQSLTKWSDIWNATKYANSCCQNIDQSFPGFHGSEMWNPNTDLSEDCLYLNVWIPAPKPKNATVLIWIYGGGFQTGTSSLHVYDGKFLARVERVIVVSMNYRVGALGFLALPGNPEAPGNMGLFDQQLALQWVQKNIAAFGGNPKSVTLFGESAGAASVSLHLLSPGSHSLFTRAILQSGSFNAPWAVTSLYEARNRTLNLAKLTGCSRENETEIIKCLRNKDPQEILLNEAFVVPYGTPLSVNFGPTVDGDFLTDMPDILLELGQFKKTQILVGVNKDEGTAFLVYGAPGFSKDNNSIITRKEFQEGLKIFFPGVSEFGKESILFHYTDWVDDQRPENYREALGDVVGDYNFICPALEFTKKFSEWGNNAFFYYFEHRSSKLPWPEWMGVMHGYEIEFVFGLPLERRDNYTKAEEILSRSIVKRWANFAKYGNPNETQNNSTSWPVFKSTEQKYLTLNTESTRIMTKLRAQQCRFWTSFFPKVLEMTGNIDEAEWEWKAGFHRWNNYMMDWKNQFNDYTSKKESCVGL
# Sequence of Cholinesterase (Equus caballus) (P81908 whole entry): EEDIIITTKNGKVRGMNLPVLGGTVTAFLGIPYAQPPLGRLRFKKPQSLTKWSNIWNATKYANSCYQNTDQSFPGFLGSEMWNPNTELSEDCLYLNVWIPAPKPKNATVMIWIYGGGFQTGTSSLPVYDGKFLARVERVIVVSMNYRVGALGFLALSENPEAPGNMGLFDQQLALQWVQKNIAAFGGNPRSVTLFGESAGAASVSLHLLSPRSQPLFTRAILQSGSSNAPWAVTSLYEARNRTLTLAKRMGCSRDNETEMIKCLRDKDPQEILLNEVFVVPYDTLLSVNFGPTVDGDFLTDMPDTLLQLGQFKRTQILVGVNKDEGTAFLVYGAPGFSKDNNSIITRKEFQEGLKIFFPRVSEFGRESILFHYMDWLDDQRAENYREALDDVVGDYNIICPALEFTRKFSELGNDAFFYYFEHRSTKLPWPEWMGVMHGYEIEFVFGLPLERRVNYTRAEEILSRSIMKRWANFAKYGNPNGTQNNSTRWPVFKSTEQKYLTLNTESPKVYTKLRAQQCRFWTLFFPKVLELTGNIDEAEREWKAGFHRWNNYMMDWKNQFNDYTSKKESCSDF
# Sequence of Acetylcholinesterase (Electrophorus electricus, UniProt O42275) (O42275 whole entry): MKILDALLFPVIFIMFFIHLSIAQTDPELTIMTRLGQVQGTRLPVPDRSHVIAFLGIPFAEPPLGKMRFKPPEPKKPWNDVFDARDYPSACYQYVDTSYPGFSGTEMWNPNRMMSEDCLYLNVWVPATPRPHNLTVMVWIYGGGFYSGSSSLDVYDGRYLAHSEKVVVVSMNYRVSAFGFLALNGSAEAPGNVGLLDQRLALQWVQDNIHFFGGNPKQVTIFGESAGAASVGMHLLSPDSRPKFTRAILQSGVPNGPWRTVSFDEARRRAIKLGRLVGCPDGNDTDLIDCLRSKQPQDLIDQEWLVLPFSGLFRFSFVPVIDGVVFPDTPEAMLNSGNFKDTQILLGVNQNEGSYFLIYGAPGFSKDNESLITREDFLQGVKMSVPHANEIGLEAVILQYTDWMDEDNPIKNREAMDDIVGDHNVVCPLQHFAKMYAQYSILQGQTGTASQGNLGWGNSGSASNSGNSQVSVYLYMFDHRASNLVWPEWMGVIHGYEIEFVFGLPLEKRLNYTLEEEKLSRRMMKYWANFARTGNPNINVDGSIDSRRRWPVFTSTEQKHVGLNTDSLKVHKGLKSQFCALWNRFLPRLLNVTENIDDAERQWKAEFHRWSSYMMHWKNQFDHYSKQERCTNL
structure (smiles),measurement,setting,value
Cc1ccc(C2=NOC(c3ccc(Cl)c(Cl)c3)C2)cc1 (stereo not drawn),IC50,[1],12 nM
Cc1c(Cl)c(=O)oc2cc(OCCCSC(=S)N3C(C)CCCC3C)ccc12 (stereo not drawn),inhibition,[2],23.3%
same,IC50,[3],5850 nM
same,IC50,[4],101 nM
same,IC50,Acetylcholinesterase [5],44 nM
O=c1c(O)c(-c2ccc(O)c(O)c2)oc2cc(O)cc(O)c12 [QUERCETIN],IC50,[6],1520 nM
Cc1c(/N=C/c2cccc([N+](=O)[O-])c2)c(=O)n(-c2ccccc2)n1C,IC50,[7],54 nM
O=c1cc(OCCN2CCOCC2)c2ccccc2o1,IC50,[8],372 nM
CC1CCCCN1c1ccc(/C=N/Nc2ccccc2)cc1 (stereo not drawn),IC50,[9],342 nM
Cc1ccc(C2=NO[C@H](c3ccc(Cl)c(Cl)c3)C2)cc1,IC50,[1],11000 nM
CCOc1ccc([N+](=O)[O-])c(N/N=C/c2ccc(C(F)(F)F)cc2)n1,IC50,[6],13100 nM
CCCCOc1ccc(C2=NN(C(N)=S)C(c3ccccc3)C2)cc1 (stereo not drawn),IC50,[10],3630 nM
same,Ratio IC50,Homo sapiens,9.55
same,IC50,[11],380 nM
Cc1c(/N=C/c2ccc(O)cc2)c(=O)n(-c2ccccc2)n1C,IC50,[7],114 nM
COc1ccc(/C(C)=N/NC(=O)C2CC(c3ccccc3)=NO2)cc1OC (stereo not drawn),IC50,[12],5.9 nM
C#CCOc1ccc(-c2cc(-c3ccc(OCCN4CCOCC4)cc3)nc(N)n2)cc1,IC50,[13],18.3 nM
same,IC50,Cholinesterase,666 nM
same,IC50,Acetylcholinesterase [14],30.5 nM
O=C1Oc2ccccc2C(=O)/C1=C/NCc1ccccc1,IC50,[15],77900 nM
same,IC50,[16],638 nM
same,Ki,[17],94000 nM
O=C(/C=C/c1cccc(F)c1)c1ccc(N2CCOCC2)cc1,IC50,[18],87 nM
same,IC50,[19],45000 nM
O=c1ccc2ccc(OCCN3CCCCC3)cc2o1,inhibition,[20],30.9%
Cc1c(C)c2c(c(C)c1O)CCC(C)(C(=O)NCCC1CCN(Cc3ccccc3F)CC1)O2 (stereo not drawn),IC50,Acetylcholinesterase [21],540 nM
same,IC50,[22],4300 nM
CCOc1ccc([N+](=O)[O-])c(N/N=C/c2cccn2C)n1,IC50,[6],6120 nM
